The values that follow come from article PMC7745125 (Science (New York, N.y.), 2019).

Test [1] has as its target T1, tyrosine decarboxylase (TyrDC) (Enterococcus faecalis, UniProt P0DTQ4).
T1 sequence (P0DTQ4 1-620): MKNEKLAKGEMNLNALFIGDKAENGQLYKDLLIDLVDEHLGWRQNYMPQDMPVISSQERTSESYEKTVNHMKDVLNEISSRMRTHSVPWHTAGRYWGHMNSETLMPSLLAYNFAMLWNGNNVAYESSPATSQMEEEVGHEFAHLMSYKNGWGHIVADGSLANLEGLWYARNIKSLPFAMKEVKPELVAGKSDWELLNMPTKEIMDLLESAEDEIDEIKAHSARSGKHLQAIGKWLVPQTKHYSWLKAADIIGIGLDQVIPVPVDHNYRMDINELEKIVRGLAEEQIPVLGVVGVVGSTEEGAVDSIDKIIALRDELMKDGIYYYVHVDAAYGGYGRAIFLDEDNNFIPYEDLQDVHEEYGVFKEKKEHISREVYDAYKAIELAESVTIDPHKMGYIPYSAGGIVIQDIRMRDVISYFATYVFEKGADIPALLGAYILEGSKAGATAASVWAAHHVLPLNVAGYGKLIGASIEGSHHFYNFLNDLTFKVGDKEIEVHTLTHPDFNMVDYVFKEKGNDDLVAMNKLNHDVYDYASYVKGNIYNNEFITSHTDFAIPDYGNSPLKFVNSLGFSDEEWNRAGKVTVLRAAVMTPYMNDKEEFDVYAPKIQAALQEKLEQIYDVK

Test [2] addresses T1, tyrosine decarboxylase (TyrDC). The test can be described thus: enzyme kinetics of TyrDC in vitro. Type of test: biochemical.

Structures are written as SMILES.

Consider `N[C@@H](Cc1ccc(O)c(O)c1)C(=O)O` [L-dopa], for which the Michaelis constant (Km) in test [1] came out at 1500 µM. Take `N[C@@H](Cc1ccc(O)cc1)C(=O)O` [L-tyrosine]: in test [2], the “enzyme kinetics of TyrDC in vitro” value is on record as “In vitro characterization of TyrDC revealed a fivefold higher catalytic efficiency toward L-tyrosine compared with L-dopa”.
